Measured values from patent publication US20030148970A1, “Methods for specifically inhibiting histone deacetylase-4” (priority 2001, published 2003).
d = 2'-deoxy (DNA); m = 2'-O-methyl

Experiments:
HDAC 2 = HDAC 2 (Homo sapiens, UniProt Q92769); experiment: histone deacetylase enzyme assay, HDAC 2; format: biochemical
Method: (§1) For the deacetylase assay, 20,000 cpm of an [^3H]-metabolically-labeled acetylated histone was used as a substrate. Histones were incubated with cloned recombinant human HDAC enzymes at 37° C. […] All assay conditions were pre-determined to be certain that each reaction was linear. Reactions were stopped by adding acetic acid (0.04 M final concentration) and HCl (250 mM, final concentration). The mixture was extracted with ethyl acetate, and the released [3H]-acetic acid was quantified by liquid scintillation counting. For the inhibition studies, HDAC enzyme was preincubated with test compounds for 30 minutes at 4° C. prior to the start of the enzymatic assay. IC50 values for HDAC enzyme inhibitors were identified with dose response curves for each individual compound and, thereby, obtaining a value for the concentration of inhibitor that produced fifty percent of the maximal inhibition.

human HDAC-6 = biological target: T1, human HDAC-6 (Homo sapiens, UniProt Q9UBN7); experiment: histone deacetylase enzyme assay, HDAC-6; format: biochemical
T1 construct: made in house; host or cells: insect cells (baculovirus expression system)
T1 sequence (Q9UBN7 1-1215): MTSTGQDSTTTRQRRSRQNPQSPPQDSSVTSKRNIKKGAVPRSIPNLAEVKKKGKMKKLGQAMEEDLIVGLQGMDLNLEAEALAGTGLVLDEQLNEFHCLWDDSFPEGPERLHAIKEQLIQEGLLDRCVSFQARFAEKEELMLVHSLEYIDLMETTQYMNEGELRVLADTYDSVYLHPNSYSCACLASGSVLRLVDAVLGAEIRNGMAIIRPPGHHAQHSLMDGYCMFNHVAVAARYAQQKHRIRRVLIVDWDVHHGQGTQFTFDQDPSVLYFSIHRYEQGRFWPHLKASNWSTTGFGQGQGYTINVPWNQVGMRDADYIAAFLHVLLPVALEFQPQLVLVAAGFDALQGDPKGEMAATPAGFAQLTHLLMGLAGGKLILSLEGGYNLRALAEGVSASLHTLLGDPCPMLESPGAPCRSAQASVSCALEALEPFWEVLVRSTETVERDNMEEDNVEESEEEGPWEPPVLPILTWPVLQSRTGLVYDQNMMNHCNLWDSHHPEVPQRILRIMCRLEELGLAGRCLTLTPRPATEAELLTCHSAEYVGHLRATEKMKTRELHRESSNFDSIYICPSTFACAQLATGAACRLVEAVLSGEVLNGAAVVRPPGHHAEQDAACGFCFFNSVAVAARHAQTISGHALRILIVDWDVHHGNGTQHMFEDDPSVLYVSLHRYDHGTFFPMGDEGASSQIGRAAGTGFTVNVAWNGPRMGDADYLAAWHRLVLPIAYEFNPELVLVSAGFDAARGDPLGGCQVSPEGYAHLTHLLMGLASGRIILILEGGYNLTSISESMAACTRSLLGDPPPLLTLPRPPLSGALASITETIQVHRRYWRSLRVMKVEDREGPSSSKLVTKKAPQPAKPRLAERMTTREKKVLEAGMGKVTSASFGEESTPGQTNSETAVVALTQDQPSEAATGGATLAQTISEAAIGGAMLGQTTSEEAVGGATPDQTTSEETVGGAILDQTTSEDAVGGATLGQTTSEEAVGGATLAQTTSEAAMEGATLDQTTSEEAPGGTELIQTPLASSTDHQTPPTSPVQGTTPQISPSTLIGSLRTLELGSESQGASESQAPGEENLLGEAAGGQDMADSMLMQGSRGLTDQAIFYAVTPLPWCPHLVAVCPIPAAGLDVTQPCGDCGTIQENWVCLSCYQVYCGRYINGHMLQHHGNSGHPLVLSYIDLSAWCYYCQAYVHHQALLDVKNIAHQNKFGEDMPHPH
Method: (§2) The other HDAC isotypes, HDAC-3 and HDAC-4, were purified directly on an anti-Flag affinity column.
as §1

[1] = system: human colon cancer cells (HCT116); experiment: tumor growth in a mouse model, colon; format: in vivo, BALB/c nude mice; conditions: 40 mg/kg body weight/day, i p; vs vehicle-treated mice
Method: Female BALB/c nude mice were obtained from Charles River Laboratories (Charles River, NY) and used at age 8-10 weeks. Human prostate tumor cells (DU145, 2×10^6) or human colon cancer cells (HCT116; 2×10^6) or small lung core A549 2×10^6 were injected subcutaneously in the animal's flank and allowed to form solid tumors. Tumor fragments were serially passaged a minimum of three times, then approximately 30 mg tumor fragments were implanted subcutaneously through a small surgical incision under general anaesthesia. Small molecule inhibitor administration by intraperotineal or oral administration was initiated when the tumors reached a volume of 100 mm^3. For intraperotineal administration, small molecule inhibitors of HDAC (40-50 mg/kg body weight/day) were dissolved in 100% DMSO and administered daily intraperitoneally by injection. For oral administration, small molecule inhibitors of HDAC (40-50 mg/kg body weight/days) were dissolved in a solution containing 65% polyethylene glycol 400 (PEG 400 (Sigma-Aldridge, Mississauga, Ontario, Calif., Catalogue No. P-3265), 5% ethanol, and 30% water. Tumor volumes were monitored twice weekly up to 20 days. Each experimental group contained at least 6-8 animals. Percentage inhibition was calculated using volume of tumor from vehicle-treated mice as controls.

[2] = system: acetylated histone H-4 in T24 human bladder cancer cells; experiment: inhibition of HDAC activity in whole cells (acetylated histone H-4 Western); format: cell-based; conditions: 16 hours
Method: T24 human bladder cancer cells (ATCC, Manassas, Va.) growing in culture were incubated with test compounds for 16 hours. Histones were extracted from the cells by standard procedures (see e.g. Yoshida et al., supra) after the culture period. Twenty μg total core histone protein was loaded onto SDS/PAGE and transferred to nitrocellulose membranes, which were then reacted with polyclonal antibody specific for acetylated histone H-4 (Upstate Biotech Inc., Lake Placid, […].). Horse Radish Peroxidase conjugated secondary antibody was used at a dilution of 1:5000 to detect primary antibody binding. The secondary antibody binding was visualized by use of the Enhanced chemiluminescence (ECL) detection kit (Amersham-Pharmacia Biotech., Inc., Piscataway, N.J.). After exposure to film, acetylated H-4 signal was quantitated by densitometry.

p21 = p21 induction by small molecules; format: cell-based
human HDAC-4 = biological target: T2, human HDAC-4 (Homo sapiens, UniProt P56524); experiment: histone deacetylase enzyme assay, HDAC-4; format: biochemical
T2 construct: Flag; made in house; host or cells: human embryonic kidney 293 cells (calcium phosphate transfection)
Method: Flag-tagged human HDAC-4 enzyme was produced in human embronic kidney 293 cells after transformation by the calcium phosphate precipitation method. Briefly, 293 cells were cultured in Dulbecco's Modified Eagle Medium (DMEM) containing 10% fetal bovine serum and antibiotics. Plasmid DNA encoding Flag-tagged human HDAC-4 was precipitated by ethanol and resuspend in sterile water. DNA-calcium precipitates, formed by mixing DNA, calcium choloride and 2×HEPES-buffered saline solution, were left on 293 cells for 12-16 hours. Cells were return to serum-contained DMEM medium and harvested at 48 hour post transfection for purification of Flag-tagged HDAC-4 enzyme.
as §2, §1

[3] = system: human colon cancer HCT116 cells; experiment: MTT assay of cell proliferation and cytotoxicity; format: cell-based; conditions: HCT-116, 48 hours
Method: Four thousand five hundred (4,500) human colon cancer HCT116 cells (ATCC, Manassas, Va. were used in an MTT (3-[4,5-dimethylthiazol-2-yl]-2,5 diphenyl tetrazolium bromide) assay to quantitatively determine cell proliferation and cytotoxicity. Typically, HCT116 cells were plated into each well of the 96-well tissue culture plate and left overnight to attach to the plate. Compounds at various concentrations (1 uM, 5 uM and 25 uM, in DMSO) were added in triplicate into the culture media (final DMSO concentration 1%) and incubated for 48 hours. MTT solution (obtained from Sigma as powder) was added and incubated with the cells for 4 hours at 37° C. in incubator with 5% CO2. During the incubation, viable cells convert MTT to a water-insoluble formazan dye. Solubilizing buffer (50% N,N-dimethylformamide, 20% SDS, pH 4.7) was added to cells and incubate for overnight at 37C in incubator with 5% CO2. Solubilized dye was quantitated by colorimetric reading at […] using a reference of […].

human HDAC-3 = biological target: T3, human HDAC-3 (Homo sapiens, UniProt O15379); experiment: histone deacetylase enzyme assay, HDAC-3; format: biochemical
T3 construct: made in house; host or cells: insect cells (baculovirus expression system)
Method: as §2, §1

cell cycle arrest = format: cell-based
human HDAC-4 protein = experiment: Western blot of HDAC-4 protein in A549 cells; format: cell-based; conditions: 50 nM, 48 hours
Method: Human cancer A549 cells were treated with AS1, AS2 or MM2 oligos for 48 hours. Whole cell lysates were analyzed by Western blotting using antibodies specific against human HDAC4.
OSDN treatment conditions were as previously described.
Cells were lysed in buffer containing 1% Triton X-100, 0.5% sodium deoxycholate, 5 mM EDTA, 25 mM Tris-HCl, pH 7.5, plus protease inhibitors. Total protein was quantified by the protein assay reagent from Bio-Rad (Hercules, Calif.). 100 ug of total protein was analyzed by SDS-PAGE. Next, total protein was transferred onto a PVDF membrane and probed with various HDAC-specific primary antibodies. Rabbit anti-HDAC-1 (H-51), anti-HDAC-2 (H-54) antibodies (Santa Cruz Biotechnologies, Santa Cruz, Calif.) were used at 1:500 dilution. Rabbit anti-HDAC-3 antibody (Sigma, St. Louis, Mo.) was used at a dilution of 1:1000. Anti-HDAC-4 antibody was prepared as previously described (Wang, S. H. et al., (1999) Mol. Cell. Biol. 19:7816-27), and was used at a dilution of 1:1000. Anti-HDAC-6 antibody was raised by immunizing rabbits with a GST fusion protein containing a fragment of HDAC-6 protein (amino acid #990 to #1216, GenBank Accession No. AAD29048). Rabbit antiserum was tested and found only to react specifically to the human HDAC-6 isoform. HDAC-6 antiserum was used at 1:500 dilution in Western blots to detect HDAC-6 in total cell lysates. […]

HDAC-4 mRNA = experiment: Northern blot of HDAC-4 mRNA in A549 cells; format: cell-based, human; conditions: escalating doses (50 nM or 100 nM), 24 hours
Method: Human cancer A549 cells were treated with escalating doses of AS1, AS2 or MM2 oligos for 24 hours. Total RNAs were harvested for Northern analysis.
Briefly, human A549 and/or T24 human bladder carcinoma cells were seeded in 10 cm tissue culture dishes one day prior to oligonucleotide treatment. The cell lines were obtained from the American Type Culture Collection (ATCC) (Manassas, Va.) and were grown under the recommended culture conditions. Before the addition of the oligonucleotides, cells were washed with PBS (phosphate buffered saline). Next, lipofectin transfection reagent (GIBCO BRL Mississauga, Ontario, Calif.), at a concentration of 6.25 μg/ml, was added to serum free OPTIMEM medium (GIBCO BRL, Rockville, Md.), which was then added to the cells. The oligonucleotides to be screened were then added directly to the cells (i.e., one oligonucleotide per plate of cells). Mismatched oligonucleotides were used as controls. The same concentration of oligonucleotide (e.g., 50 nM) was used per plate of cells for each oligonucleotide tested.
Cells were harvested, and total RNAs were analyzed by Northern blot analysis. Briefly, total RNA was extracted using RNeasy miniprep columns (QIAGEN). Ten to twenty μg of total RNA was run on a formaldehyde-containing 1% agarose gel with 0.5 M sodium phosphate (pH 7.0) as the buffer system. […]

Human A549 cells = experiment: cDNA array analysis of gene transcription; format: cell-based; conditions: A549, 50 nM, two days
Description: Fold change on transcriptions was compared to that of HDAC-4 mismatch oligo (MM2) treated cells;

T2 sequence (P56524 whole entry): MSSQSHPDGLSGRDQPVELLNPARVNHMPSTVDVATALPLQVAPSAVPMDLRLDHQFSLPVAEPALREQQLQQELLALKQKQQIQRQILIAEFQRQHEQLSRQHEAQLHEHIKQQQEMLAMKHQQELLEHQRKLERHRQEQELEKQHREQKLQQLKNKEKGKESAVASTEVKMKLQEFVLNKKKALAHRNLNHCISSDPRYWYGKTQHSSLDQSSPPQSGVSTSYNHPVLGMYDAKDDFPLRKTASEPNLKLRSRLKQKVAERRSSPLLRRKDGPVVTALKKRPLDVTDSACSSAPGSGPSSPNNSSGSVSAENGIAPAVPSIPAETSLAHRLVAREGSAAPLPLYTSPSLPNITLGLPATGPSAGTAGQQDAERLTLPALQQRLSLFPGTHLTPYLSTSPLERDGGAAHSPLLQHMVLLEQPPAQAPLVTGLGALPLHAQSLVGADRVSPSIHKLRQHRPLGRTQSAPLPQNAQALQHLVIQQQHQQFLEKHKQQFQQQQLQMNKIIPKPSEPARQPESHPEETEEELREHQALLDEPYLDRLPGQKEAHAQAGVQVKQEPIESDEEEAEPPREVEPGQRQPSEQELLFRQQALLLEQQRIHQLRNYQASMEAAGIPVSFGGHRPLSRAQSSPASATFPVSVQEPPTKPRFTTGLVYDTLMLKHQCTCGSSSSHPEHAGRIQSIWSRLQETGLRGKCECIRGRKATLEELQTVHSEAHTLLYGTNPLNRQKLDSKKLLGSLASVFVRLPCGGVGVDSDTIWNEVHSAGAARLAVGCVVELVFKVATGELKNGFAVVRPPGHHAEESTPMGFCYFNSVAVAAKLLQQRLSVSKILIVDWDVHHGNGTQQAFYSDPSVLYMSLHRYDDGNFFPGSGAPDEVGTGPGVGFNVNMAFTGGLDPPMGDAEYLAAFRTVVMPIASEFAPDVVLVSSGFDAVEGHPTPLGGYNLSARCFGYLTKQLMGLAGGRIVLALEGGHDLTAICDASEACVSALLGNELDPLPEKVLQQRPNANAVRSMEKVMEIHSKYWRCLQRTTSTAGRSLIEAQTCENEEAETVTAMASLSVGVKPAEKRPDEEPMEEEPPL
Sequence of HDAC 2 (Q92769 whole entry): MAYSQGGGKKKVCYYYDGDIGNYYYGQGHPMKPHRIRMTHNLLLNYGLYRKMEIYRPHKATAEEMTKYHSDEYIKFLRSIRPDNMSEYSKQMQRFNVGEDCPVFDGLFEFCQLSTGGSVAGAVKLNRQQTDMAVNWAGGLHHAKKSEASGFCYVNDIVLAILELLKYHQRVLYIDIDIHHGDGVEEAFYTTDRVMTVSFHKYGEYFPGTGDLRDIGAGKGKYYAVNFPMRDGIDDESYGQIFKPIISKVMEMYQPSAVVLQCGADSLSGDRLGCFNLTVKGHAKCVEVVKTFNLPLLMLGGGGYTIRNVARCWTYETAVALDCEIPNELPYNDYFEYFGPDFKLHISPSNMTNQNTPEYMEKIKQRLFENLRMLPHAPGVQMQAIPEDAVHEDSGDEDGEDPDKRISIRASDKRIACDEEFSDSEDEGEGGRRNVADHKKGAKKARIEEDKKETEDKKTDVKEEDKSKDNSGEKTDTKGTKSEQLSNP
T3 sequence (O15379 whole entry): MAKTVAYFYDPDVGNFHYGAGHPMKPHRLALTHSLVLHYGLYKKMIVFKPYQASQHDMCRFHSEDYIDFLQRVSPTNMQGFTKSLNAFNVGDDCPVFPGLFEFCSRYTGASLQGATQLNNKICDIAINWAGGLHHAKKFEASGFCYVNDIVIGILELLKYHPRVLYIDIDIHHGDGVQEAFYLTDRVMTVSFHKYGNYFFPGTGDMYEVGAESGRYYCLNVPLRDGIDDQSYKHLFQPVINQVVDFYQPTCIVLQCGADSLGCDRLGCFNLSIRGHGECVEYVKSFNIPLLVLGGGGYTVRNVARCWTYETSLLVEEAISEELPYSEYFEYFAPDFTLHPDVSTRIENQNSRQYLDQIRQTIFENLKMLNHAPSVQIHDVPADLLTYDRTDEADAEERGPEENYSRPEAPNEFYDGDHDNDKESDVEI

Compound	IC50 (HDAC 2)	IC50 (human HDAC-6)	effective concentration for histone H4 acetylation [2]	p21 induction (p21)	IC50 (human HDAC-4)	IC50 [3]	IC50 (human HDAC-3)	cell cycle arrest EC (cell cycle arrest)	expression of HDAC-4 protein (human HDAC-4 protein)	expression of HDAC-4 mRNA (HDAC4 expression at RNA level) (HDAC-4 mRNA)	also measured
Nc1ccccc1NC(=O)CCCCCCC(=O)c1ccc(-c2ccccc2)cc1 [MG 365 0]	4 µM	> 50 µM	10 µM	10 µM	23 µM	5 µM	> 20 µM	9 µM			% inh. of tumor formation in vivo, colon [1]: 53 (40, i p) %
Nc1ccccc1NC(=O)CCCCCCC(=O)c1ccc(-c2ccccc2)nc1 [MG 385 9]	8 µM	> 50 µM	5 µM	5 µM	13 µM	5 µM	18 µM	3 µM			
HDAC4 AS2: 5′-TACAGTCCATGCAACCTCCA-3′, antisense to human HDAC4 3′-UTR, AB006626 (sugars from the 5' end m4 d12 m4, all phosphorothioate, methylation of C and T or U not given here)									can inbibit HDAC4 expression at protein level	can inbibit HDAC4 expression at RNA level in a dose-dependent manner	
HDAC-4 AS1: 5′-GCTGCCTGCCGTGCCCACCC-3′, antisense to human HDAC4 5′-UTR, AB006626 (sugars from the 5' end m4 d12 m4, all phosphorothioate, methylation of C and T or U not given here)									can inbibit HDAC4 expression at protein level	can inbibit HDAC4 expression at RNA level in a dose-dependent manner	fold change, CDK4 (Human A549 cells; vs HDAC-4 mismatch oligo (MM2)): −3 fold; fold change, Egr-1 (Human A549 cells; vs HDAC-4 mismatch oligo (MM2)): 3 fold; fold change, GADD45 (Human A549 cells; vs HDAC-4 mismatch oligo (MM2)): 3 fold; fold change, GADD153 (Human A549 cells; vs HDAC-4 mismatch oligo (MM2)): 6 fold; fold change, IL-15 (Human A549 cells; vs HDAC-4 mismatch oligo (MM2)): 4 fold; fold change, IRF (Human A549 cells; vs HDAC-4 mismatch oligo (MM2)): 2 fold; fold change, Notch-4 (Human A549 cells; vs HDAC-4 mismatch oligo (MM2)): −3 fold; fold change, PLK (Human A549 cells; vs HDAC-4 mismatch oligo (MM2)): −4 fold; fold change, basic FGF (Human A549 cells; vs HDAC-4 mismatch oligo (MM2)): 2 fold; fold change, cyclin A2 (Human A549 cells; vs HDAC-4 mismatch oligo (MM2)): −3 fold; fold change, cyclin B1 (Human A549 cells; vs HDAC-4 mismatch oligo (MM2)): −3 fold; fold change, p21 (Human A549 cells; vs HDAC-4 mismatch oligo (MM2)): 4 fold; fold change, topo II α (Human A549 cells; vs HDAC-4 mismatch oligo (MM2)): −5 fold; number of genes with altered expression (Human A549 cells; out of 588 genes): 39 genes
